Results on 32 molecules are retold here after US11524968B2, “Heterocyclic compound as a protein kinase inhibitor” (HK inno.N Corporation, priority 2017, dated 2022).

pIC50: −log10 of the molar value.

JAK1, sequence (P23458 whole entry): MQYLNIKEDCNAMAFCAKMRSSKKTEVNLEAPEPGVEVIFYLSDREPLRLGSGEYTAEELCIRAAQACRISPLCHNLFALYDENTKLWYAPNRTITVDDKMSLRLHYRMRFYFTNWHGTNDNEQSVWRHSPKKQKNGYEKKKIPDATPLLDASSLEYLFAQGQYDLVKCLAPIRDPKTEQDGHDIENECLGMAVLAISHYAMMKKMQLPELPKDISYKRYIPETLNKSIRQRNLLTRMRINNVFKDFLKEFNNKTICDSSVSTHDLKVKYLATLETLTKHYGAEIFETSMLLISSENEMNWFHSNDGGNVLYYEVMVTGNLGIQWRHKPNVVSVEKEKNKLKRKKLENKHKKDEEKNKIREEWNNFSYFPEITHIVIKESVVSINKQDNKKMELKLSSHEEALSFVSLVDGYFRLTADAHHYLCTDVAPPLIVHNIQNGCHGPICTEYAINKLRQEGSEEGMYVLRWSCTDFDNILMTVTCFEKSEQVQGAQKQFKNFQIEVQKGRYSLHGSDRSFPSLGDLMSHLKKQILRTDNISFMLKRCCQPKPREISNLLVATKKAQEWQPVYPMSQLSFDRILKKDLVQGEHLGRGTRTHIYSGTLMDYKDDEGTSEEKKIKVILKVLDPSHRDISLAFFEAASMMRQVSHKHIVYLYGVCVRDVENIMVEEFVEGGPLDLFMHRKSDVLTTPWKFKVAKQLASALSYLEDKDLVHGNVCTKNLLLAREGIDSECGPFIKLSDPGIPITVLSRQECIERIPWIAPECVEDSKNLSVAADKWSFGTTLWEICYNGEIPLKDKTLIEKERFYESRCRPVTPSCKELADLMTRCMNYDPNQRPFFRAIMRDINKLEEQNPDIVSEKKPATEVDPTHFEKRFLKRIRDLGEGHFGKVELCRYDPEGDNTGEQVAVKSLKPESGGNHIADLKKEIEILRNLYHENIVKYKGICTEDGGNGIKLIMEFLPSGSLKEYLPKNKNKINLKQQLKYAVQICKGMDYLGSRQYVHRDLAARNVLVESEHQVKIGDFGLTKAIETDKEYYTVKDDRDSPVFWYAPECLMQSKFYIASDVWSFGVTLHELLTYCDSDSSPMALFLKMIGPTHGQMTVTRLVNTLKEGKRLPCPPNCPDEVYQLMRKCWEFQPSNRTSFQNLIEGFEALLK

For this test, the target named is JAK1 (Homo sapiens (Human), UniProt P23458). Description: Analysis of JAK1 activity inhibition ability (ADP-Glo Kinase Assay). Format: biochemical. The settings on record: JAK1 enzyme, ADP-Glo luminescence, ATP 250 uM, IRS-itide substrate, 30° C. 40 minutes; read-out: IC50. In a few lines:
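JAK1 enzyme, IRS-itide substrate (40 ng/mL) and 250 uM ATP, both as prepared in kinase buffer (Tris-HCl pH 7.5, MgCl2, BSA, DTT), reacted with compound 40 min at 30 °C. ADP formed was detected by ADP-Glo luminescence; IC50 is the concentration giving 50% inhibition versus control.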
On to `O=C(Nc1cc(C2=CCC(NS(=O)(=O)c3cccc(F)c3)CC2)c2cc[nH]c2n1)C1CC1` (centres unmarked) [Example 163, N-(4-(4-((3-fluorophenyl)sulfonamido)cyclohex-1-en-1-yl)-1H-pyrrolo[2,3-b]pyridin-6-yl)cyclopropanecarboxamide], for which the pIC50 was greater than 7.70.

Regarding `O=C(Nc1cc(-c2cn(Cc3ccccc3)nn2)c2cc[nH]c2n1)C1CC1` [Example 481, N-(4-(1-benzyl-1H-1,2,3-triazol-4-yl)-1H-pyrrolo[2,3-b]pyridin-6-yl)cyclopropanecarboxamide], the negative logarithm of the IC50 (pIC50) is 6.70 to 7.70.

For `CCS(=O)(=O)Nc1ccc(-c2nc(NC(=O)C3CC3)nc3[nH]ccc23)cc1` [Example 182, N-(4-(4-(ethylsulfonamido)phenyl)-7H-pyrrolo[2,3-d]pyrimidin-2-yl)cyclopropanecarboxamide], the pIC50 is 6.70 to 7.70.

For the molecule `N#CCC(=O)N1C=C(c2cc(NC(=O)C3CC3)nc3[nH]ccc23)CCC1` [Example 419, N-(4-(1-(2-cyanoacetyl)-1,4,5,6-tetrahydropyridin-3-yl)-1H-pyrrolo[2,3-b]pyridin-6-yl)cyclopropanecarboxamide], the pIC50 was less than 6.70.

With `O=C(Nc1cc(-c2ccc(NC3CN(C(=O)c4cc(F)cc(F)c4)C3)cc2)c2cc[nH]c2n1)C1CC1` [Example 510, N-(4-(4-((1-(3,5-difluorobenzoyl)azetidin-3-yl)amino)phenyl)-1H-pyrrolo[2,3-b]pyridin-6-yl)cyclopropanecarboxamide], the negative logarithm of the IC50 (pIC50) is less than 6.70.

Take `N#CCCC(=O)N1CC=C(c2cc(NC(=O)C3CC3)nc3[nH]ccc23)C2(CC2)C1` [Example 302, N-(4-(5-(3-cyanopropanoyl)-5-azaspiro[2.5]oct-7-en-8-yl)-1H-pyrrolo[2,3-b]pyridin-6-yl)cyclopropanecarboxamide]: the negative logarithm of the IC50 (pIC50) was 6.70 to 7.70.

In the case of `O=C(Nc1cc(-c2ccc(CC(=O)N3CCNCC3)cc2)c2cc[nH]c2n1)C1CC1` [Example 558, N-(4-(4-(2-oxo-2-(piperazin-1-yl)ethyl)phenyl)-1H-pyrrolo[2,3-b]pyridin-6-yl)cyclopropanecarboxamide], the pIC50 is less than 6.70.

With `O=C(Nc1nc(-c2ccc(CN3CCS(=O)(=O)CC3)cc2)c2nc[nH]c2n1)C1CC1` [Example 592, N-(6-(4-((1,1-dioxidothiomorpholino)methyl)phenyl)-9H-purin-2-yl)cyclopropanecarboxamide], the pIC50 was less than 6.70.

`CC1(C)CC(c2cc(NC(=O)C3CC3)nc3[nH]ccc23)=CCN1C(=O)c1ccnc(Cl)c1` [Example 386, N-(4-(1-(2-chloroisonicotinoyl)-2,2-dimethyl-1,2,3,6-tetrahydropyridin-4-yl)-1H-pyrrolo[2,3-b]pyridin-6-yl)cyclopropanecarboxamide]: the pIC50 was 6.70 to 7.70.

For `CCCCS(=O)(=O)Nc1ccc(-c2cc(NC(=O)C3CC3)nc3[nH]ccc23)cc1F` [Example 67, N-(4-(4-(butylsulfonamido)-3-fluorophenyl)-1H-pyrrolo[2,3-b]pyridin-6-yl)cyclopropanecarboxamide], the pIC50 is greater than 7.70.

Turning to `O=C(Nc1nc(-c2ccc(NS(=O)(=O)c3ccc(F)c(F)c3)cc2)c2cc[nH]c2n1)C1CC1` [Example 181, N-(4-(4-((3,4-difluorophenyl)sulfonamido)phenyl)-7H-pyrrolo[2,3-d]pyrimidin-2-yl)cyclopropanecarboxamide], the pIC50 was greater than 7.70.

As for `N#CCC(=O)N1CC=C(c2cc(NC(=O)C3CC3)nc3[nH]ccc23)C2(CC2)C1` [Example 303, N-(4-(5-(2-cyanoacetyl)-5-azaspiro[2.5]oct-7-en-8-yl)-1H-pyrrolo[2,3-b]pyridin-6-yl)cyclopropanecarboxamide], the pIC50 is greater than 7.70.

As for `COc1ccc(C(=O)N2CC=C(c3cc(NC(=O)C4CC4)nc4[nH]ccc34)C(C)C2)c(OC)c1` (centres unmarked) [Example 356, N-(4-(1-(2,4-dimethoxybenzoyl)-3-methyl-1,2,3,6-tetrahydropyridin-4-yl)-1H-pyrrolo[2,3-b]pyridin-6-yl)cyclopropanecarboxamide], the negative-log IC50 (pIC50) is less than 6.70.

Consider `CCc1cc(-c2cc(NC(=O)C3CC3)nc3[nH]ccc23)cc(CC)c1NS(=O)(=O)CC1(C#N)CC1` [Example 138, N-(4-(4-(((1-cyanocyclopropyl)methyl)sulfonamido)-3,5-diethylphenyl)-1H-pyrrolo[2,3-b]pyridin-6-yl)cyclopropanecarboxamide], for which the pIC50 is less than 6.70.

Take `O=C(Nc1cc(-c2ccc(CC(=O)N3CCSCC3)cc2)c2cc[nH]c2n1)C1CC1` [Example 560, N-(4-(4-(2-oxo-2-thiomorpholinoethyl)phenyl)-1H-pyrrolo[2,3-b]pyridin-6-yl)cyclopropanecarboxamide]: the negative logarithm of the IC50 (pIC50) is 6.70 to 7.70.

On to `O=C(Nc1cc(N2CCN(S(=O)(=O)N3CCOCC3)CC2)c2cc[nH]c2n1)C1CC1` [Example 673, N-(4-(4-(morpholinosulfonyl)piperazin-1-yl)-1H-pyrrolo[2,3-b]pyridin-6-yl)cyclopropanecarboxamide], for which the negative logarithm of the IC50 (pIC50) is less than 6.70.

Turning to `O=C(Nc1cc(-c2ccc(CCN3CCS(=O)(=O)CC3)cc2)c2cc[nH]c2n1)C1CC1` [Example 591, N-(4-(4-(2-(1,1-dioxidothiomorpholino)ethyl)phenyl)-1H-pyrrolo[2,3-b]pyridin-6-yl)cyclopropanecarboxamide], the pIC50 was 6.70 to 7.70.

For the molecule `CCCCNC(=O)N1CCC(c2cc(NC(=O)C3CC3)nc3[nH]ccc23)CC1` [Example 653, N-butyl-4-(6-(cyclopropanecarboxamido)-1H-pyrrolo[2,3-b]pyridin-4-yl)piperidine-1-carboxamide], the pIC50 is less than 6.70.

In the case of `N#CCCC(=O)N1C2C=C(c3cc(NC(=O)C4CC4)nc4[nH]ccc34)CC1CC2` (centres unmarked) [Example 255, N-(4-(8-(3-cyanopropanoyl)-8-azabicyclo[3.2.1]oct-2-en-3-yl)-1H-pyrrolo[2,3-b]pyridin-6-yl)cyclopropanecarboxamide], the negative-log IC50 (pIC50) was greater than 7.70.

Consider `O=C(Nc1cc(-c2ccc(OS(=O)(=O)CC3CCOC3)cc2)c2cc[nH]c2n1)C1CC1` (centres unmarked) [Example 638, 4-(6-(cyclopropanecarboxamido)-1H-pyrrolo[2,3-b]pyridin-4-yl)phenyl (tetrahydrofuran-3-yl)methanesulfonate], for which the pIC50 is 6.70 to 7.70.

For `O=C(Nc1nc(-c2ccc(NS(=O)(=O)C3CCS(=O)(=O)CC3)cc2)c2cc[nH]c2n1)C1CC1` [Example 195, N-(4-(4-((1,1-dioxidotetrahydro-2H-thiopyran)-4-sulfonamido)phenyl)-7H-pyrrolo[2,3-d]pyrimidin-2-yl)cyclopropanecarboxamide], the negative-log IC50 (pIC50) was 6.70 to 7.70.

Take `CC(C)N1CCN(C(=O)Cc2ccc(-c3cc(NC(=O)C4CC4)nc4[nH]ccc34)cc2)CC1` [Example 552, N-(4-(4-(2-(4-isopropylpiperazin-1-yl)-2-oxoethyl)phenyl)-1H-pyrrolo[2,3-b]pyridin-6-yl)cyclopropanecarboxamide]: the negative-log IC50 (pIC50) was less than 6.70.

As for `O=C(Nc1nc(-c2ccc(NCCCO)cc2)c2cc[nH]c2n1)C1CC1` [Example 476, N-(4-(4-((3-hydroxypropyl)amino)phenyl)-7H-pyrrolo[2,3-d]pyrimidin-2-yl)cyclopropanecarboxamide], the pIC50 is less than 6.70.

As to `CCCCS(=O)(=O)Oc1ccc(-c2cc(NC(=O)C3CC3)nc3[nH]ccc23)cc1` [Example 632, 4-(6-(cyclopropanecarboxamido)-1H-pyrrolo[2,3-b]pyridin-4-yl)phenyl butane-1-sulfonate], the pIC50 is 6.70 to 7.70.

As for `N#CCC(=O)N1CC=C(c2cc(NC(=O)C3CC3)nc3[nH]ccc23)CC1C(F)(F)F` (centres unmarked) [Example 393, N-(4-(1-(2-cyanoacetyl)-2-(trifluoromethyl)-1,2,3,6-tetrahydropyridin-4-yl)-1H-pyrrolo[2,3-b]pyridin-6-yl)cyclopropanecarboxamide], the pIC50 was greater than 7.70.

`O=C(Nc1cc(-c2ccc(NS(=O)(=O)CCF)cc2)c2cc[nH]c2n1)C1CC1` [Example 8, N-(4-(4-((2-fluoroethyl)sulfonamido)phenyl)-1H-pyrrolo[2,3-b]pyridin-6-yl)cyclopropanecarboxamide]: the pIC50 was 6.70 to 7.70.

For `CC(C)(C)CS(=O)(=O)Nc1ccc(-c2cc(NC(=O)C3CC3)nc3[nH]ccc23)cc1F` [Example 79, N-(4-(4-((2,2-dimethylpropyl)sulfonamido)-3-fluorophenyl)-1H-pyrrolo[2,3-b]pyridin-6-yl)cyclopropanecarboxamide], the pIC50 was greater than 7.70.

`CCc1cc(NS(=O)(=O)CC)ccc1-c1cc(NC(=O)C2CC2)nc2[nH]ccc12` [Example 99, N-(4-(2-ethyl-4-(ethylsulfonamido)phenyl)-1H-pyrrolo[2,3-b]pyridin-6-yl)cyclopropanecarboxamide]: the pIC50 is greater than 7.70.

For `N#CCC(=O)N1CC(n2cc(-c3cc(NC(=O)C4CC4)nc4[nH]ccc34)cn2)C1` [Example 610, N-(4-(1-(1-(2-cyanoacetyl)azetidin-3-yl)-1H-pyrazol-4-yl)-1H-pyrrolo[2,3-b]pyridin-6-yl)cyclopropanecarboxamide], the pIC50 is 6.70 to 7.70.

Take `CC1CN(C(=O)CCC#N)CC=C1c1cc(NC(=O)C2CC2)nc2[nH]ccc12` (centres unmarked) [Example 284, N-(4-(1-(3-cyanopropanoyl)-3-methyl-1,2,3,6-tetrahydropyridin-4-yl)-1H-pyrrolo[2,3-b]pyridin-6-yl)cyclopropanecarboxamide]: the pIC50 is greater than 7.70.

In the case of `CC1(C)CN(C(=O)CC#N)CC=C1c1cc(NC(=O)C2CC2)nc2[nH]ccc12` [Example 299, N-(4-(1-(2-cyanoacetyl)-3,3-dimethyl-1,2,3,6-tetrahydropyridin-4-yl)-1H-pyrrolo[2,3-b]pyridin-6-yl)cyclopropanecarboxamide], the negative logarithm of the IC50 (pIC50) is 6.70 to 7.70.

Take `Cc1c(NS(=O)(=O)C2CC2)ccc(-c2cc(NC(=O)C3CC3)[n+]([O-])c3[nH]ccc23)c1C` [Example 136, 6-(cyclopropanecarboxamido)-4-(4-(cyclopropanesulfonamido)-2,3-dimethylphenyl)-1H-pyrrolo[2,3-b]pyridine 7-oxide]: the pIC50 is 6.70 to 7.70.
